Some results are limits rather than exact numbers.

Experimental findings from US8263791B2, “Method and reagent for protein analysis” (National Institute of Advanced Industrial Science and …, priority 2008, dated 2012) are described below.

Data set [1] is described as follows: Measurement of maximum absorption wavelength and maximum fluorescence wavelength. Type of data set: physicochemical. Conditions: 25 μg/mL in purified water. Here is the method: Compound 1 and Compound 2 were separately dissolved in purified water at a concentration of 25 μg/mL. The absorption spectra at a wavelength ranging from 200 nm to 800 nm and the fluorescence spectra at a wavelength ranging from 450 nm to 600 nm were measured. The absorption spectra were measured using U3310 (Hitachi High-Technologies Corporation) and the fluorescence spectra were measured using RF-1500 (Shimadzu Corporation).

The test system of data set [2] is Protein Standard Mixture IV (ovotransferrin, albumin, ovalbumin, carboanhydrase, myoglobin, cytochrome C). Nature of the data set: Evaluation of protein detection using Compound 1 and Compound 2 (staining after electrophoresis, Tween80). Details: key to Detection: +: All bands could be detected.; −: At least one band could not be detected. Conditions: compound 60 μg/mL. As for the experimental part: Two (2) mL of a stock buffer (a mixture of purified water (4.2 mL), 0.5 M Tris-hydrochloric acid buffer (pH 8.6) (1.0 mL), glycerol (0.8 mL), 100 g/L sodium dodecyl sulfate (1.6 mL), and 2-mercaptoethanol (0.4 mL)) was added to 2 mg of a commercially available molecular weight marker (Protein Standard Mixture IV; Merck & Co., Inc.). The mixture was heated in boiling water for 2 minutes and then cooled. Thirty (30) μL each of the resultant was dispensed in a 0.5-mL microtube and then cryopreserved at −80° C. until the use thereof. A sample diluent (a mixture of purified water (3.8 mL), 0.5 M Tris-hydrochloric acid buffer (pH 8.6) (1.0 mL), glycerol (0.8 mL), 100 g/L sodium dodecyl sulfate (1.6 mL), and 5 g/L bromophenol blue (0.8 mL)) was added to the thawed molecular weight marker, so that a dilution series with protein concentrations ranging from 0.4 ng/μL to 200 ng/μL was prepared.
The marker contained, in terms of mass, equal amounts of ovotransferrin (78 kDa), albumin (66.3 kDa), ovalbumin (42.7 kDa), carboanhydrase (30 kDa), myoglobin (16.9 kDa), and cytochrome C (12.4 kDa).
• Electrophoresis apparatus: RAPIDAS-Mini-Slab electrophoresis chamber AE6450 (ATTO Corporation) • Polyacrylamide gel: Multigel II mini 10/20 (13W) (COSMO BIO Co., Ltd.) • Buffer for electrophoresis: 27.2 mM Tris (hydroxymethyl) aminomethane, 192 mM glycine, 3.5 mM Sodium dodecyl sulfate (pH 8.3) • Fluorescence imaging analyzer: Light capture II (ATTO Corporation)
Each sample of the dilution series prepared in (1) above was applied to a gel at 5 μL/well (lane 1: 167 ng of protein/band; lane 2: 83.3 ng/band; lane 3: 41.7 ng/band; lane 4: 20.8 ng/band; lane 5: 10.4 ng/band; lane 6: 5.2 ng/band; lane 7: 2.6 ng/band; lane 8: 1.3 ng/band; lane 9: 0.7 ng/band; and lane 10: 0.4 ng/band) and then subjected to electrophoresis with constant current of 30 mA for 45 minutes.
(§1) Protein detection was carried out using Compound 1 and Compound 2 synthesized in Example 1 under analysis conditions described in Example 3. After electrophoresis, the gel was first immersed in 1% Tween80 aqueous solution for 20 minutes and then immersed in a buffer containing Compound 1 (60 μg/mL) or Compound 2 (60 μg/mL) for 10 minutes. Subsequently, the gel was transferred to and immersed in a container containing a 1% Tween80 aqueous solution for 30 minutes. […] The total time needed for treatment was 60 minutes. The gel was analyzed using a fluorescence imaging analyzer. When Compound 1 was used, bands containing 2.6 ng or more of proteins could be detected. Compared with the result, the detection limit was 20 ng in the case of Compound 2.

The test system is the same in data set [3]. In words: Protein detection with staining carried out during electrophoresis. Conditions: compound 15 μg/mL in electrophoresis buffer. Set-up: key to Detection: +: All bands could be detected.; −: At least one band could not be detected. Here is the method:
Compound 1 or Compound 2 were dissolved in a buffer for electrophoresis (27.2 mM Tris (hydroxymethyl)aminomethane, 192 mM glycine, and 3.5 mM sodium dodecyl sulfate (pH 8.3)) at a concentration of 15 μg/mL. With the use of the above buffer, the other conditions identical to those described in Example 3 were employed to carry out electrophoresis. After completion of electrophoresis, the gel was transferred to a container containing 1% Tween80 aqueous solution, left to stand for 40 minutes, and then analyzed using a fluorescence imaging analyzer. When Compound 1 was used, bands containing 5.2 ng or more of a protein could be detected.

The target of the next data set is T1, BSA (Bos taurus, UniProt P02769).
T1 construct: purchased PIERCE
T1 sequence (P02769 25-607): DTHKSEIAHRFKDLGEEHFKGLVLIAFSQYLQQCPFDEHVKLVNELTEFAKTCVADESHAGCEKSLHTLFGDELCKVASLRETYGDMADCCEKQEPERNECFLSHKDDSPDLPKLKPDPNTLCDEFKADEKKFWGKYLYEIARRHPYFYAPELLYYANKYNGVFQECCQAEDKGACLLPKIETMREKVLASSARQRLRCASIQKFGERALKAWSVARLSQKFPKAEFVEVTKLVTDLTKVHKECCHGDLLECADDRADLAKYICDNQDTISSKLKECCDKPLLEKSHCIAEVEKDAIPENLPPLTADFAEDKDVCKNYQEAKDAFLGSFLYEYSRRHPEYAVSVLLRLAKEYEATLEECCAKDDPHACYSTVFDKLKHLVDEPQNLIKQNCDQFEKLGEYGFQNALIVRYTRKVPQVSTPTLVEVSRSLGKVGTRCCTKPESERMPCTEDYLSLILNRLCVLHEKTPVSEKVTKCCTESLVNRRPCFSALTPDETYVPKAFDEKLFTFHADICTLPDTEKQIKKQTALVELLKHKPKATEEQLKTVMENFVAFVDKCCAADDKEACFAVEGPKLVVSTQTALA
Nature of the data set: Evaluation of protein detection using Compound 3. Details: key to Detection: +: Band could be detected.; −: No band could be detected. Here is the method:
Protein samples were prepared as follows: Sample buffer (0.0625 M Tris-HCl (pH 6.8), 5% 2-mercaptoethanol, 2% SDS, 20% glycerol, and 0.005% BPB) was added to 2.0 mg/mL commercially available BSA (PIERCE). to dilute it to concentrations of 200, 60, 30, 12, 6, 3, and 0.2 ng/μL, respectively. These protein samples were heated at 80° C. for 5 minutes and then left to stand to cool.
Conditions for electrophoresis are as follows: • Electrophoresis apparatus: ERICA XVE-001C (DRC Co., Ltd.) • Polyacrylamide gel: XV PANTERA Gel (DRC Co., Ltd.) • Buffer for electrophoresis: electrophoresis buffer attached to XV PANTERA Gel • Fluorescence imaging analyzer: LS400 (TECAN GROUP LTD) • Excitation wavelength: 543 nm; detection wavelength: 590 nm.
Each of the above prepared samples was applied to a gel at 5 μL/well (1000, 300, 150, 60, 30, 15, and 1 ng/band, respectively), followed by electrophoresis.
(§2) After electrophoresis, the gel was immediately immersed in distilled water for 20 to 30 minutes. Subsequently, the gel was transferred to another container and then a staining solution (distilled water:methanol=1:1 (v/v)) in which Compound 3 (100 μg/mL) had been dissolved was added. After 30 minutes of immersion, the gel was transferred to another container and then immersed in a wash solution (water:methanol=90:10 (v/v)) for decoloration. The gel was observed using a fluorescence imaging analyzer.

Data set [4] is described as follows: Water solubility / precipitation in the staining solution. Type of data set: physicochemical. Here is the method: After electrophoresis, the gel was immediately immersed in a solution (I) (purified water, 1% Tween80 aqueous solution, or 1% Tween20 aqueous solution) for a predetermined period of time (20 minutes or 30 minutes). Subsequently, the gel was transferred to another container and then a buffer (purified water/25 mM phosphate buffer (pH 2.5)/methanol=45/45/10 (v/v)) in which Compound 1 (100 μg/mL) had been dissolved was added. After being left to stand for 10 minutes, the gel was transferred to another container and then immersed in a solution (II) (purified water, 1% Tween80 aqueous solution, or 1% Tween20 aqueous solution) for decoloration.
as §1, §2

With `CC1=CC(=C(C#N)C#N)C=C(/C=C/c2ccccc2S(=O)(=O)[O-])O1.[Na+]` [Compound 2, (E)-2-(2-(4-(dicyanomethylene)-6-methyl-4H-pyrane-2-yl)vinyl)sodium Benzenesulfonate], in data set [1], the “Excitation wavelength for maximum fluorescence” value was determined as 440 nm. In data set [1], this compound came in with a Maximum absorption wavelength of 388 nm. Besides, the Maximum fluorescence wavelength in data set [1] was 511 nm. Besides, the Detection entry in data set [2] (Lane 1, protein 167 ng/band) is on record as “+”; in data set [2] (Lane 2, protein 83.3 ng/band), “+”; in data set [2] (Lane 3, protein 41.7 ng/band) it was “+”; in data set [2] (Lane 4, protein 20.8 ng/band), “+”; in data set [2] (Lane 5, protein 10.4 ng/band), “−”; in data set [2] (Lane 6, protein 5.2 ng/band) it was “−”. In addition, the Detection entry in data set [2] (Lane 7, protein 2.6 ng/band) was “−”; in data set [2] (Lane 8, protein 1.3 ng/band), “−”; in data set [2] (Lane 9, protein 0.7 ng/band), “−”; in data set [2] (Lane 10, protein 0.4 ng/band) it was “−”; in data set [3] (Lane 1, protein 167 ng/band), “−”; in data set [3] (Lane 2, protein 83.3 ng/band) it was “−”. Also, the Detection entry was “−” in data set [3] (Lane 3, protein 41.7 ng/band); “−” in data set [3] (Lane 4, protein 20.8 ng/band); “−” in data set [3] (Lane 5, protein 10.4 ng/band); “−” in data set [3] (Lane 6, protein 5.2 ng/band); “−” in data set [3] (Lane 7, protein 2.6 ng/band); “−” in data set [3] (Lane 8, protein 1.3 ng/band). The Detection entry in data set [3] (Lane 9, protein 0.7 ng/band) is given as “−”; in data set [3] (Lane 10, protein 0.4 ng/band) it was “−”. In data set [2] (1% Tween80 before and after staining), the “Detection limit (protein per band that could be detected)” value came out at 20 ng. For the same compound, the “Protein detection (in words)” value in data set [3] (1% Tween80 40 minutes) is given as “proteins other than cytochrome C could not be detected”.

`CC1=CC(=C(C#N)C#N)C=C(/C=C/c2ccc(O)c3ccccc23)O1` [Compound 3]: the “Sensitivity lower than that of the compound of the present invention” value at BSA is reported as not below 10 times. Also, the Detection result at BSA (BSA 1 ng/band, compound 100 μg/mL) is “−”; on BSA (BSA 15 ng/band, compound 100 μg/mL) it was “−”; at BSA (BSA 30 ng/band, compound 100 μg/mL), “+”; on BSA (BSA 60 ng/band, compound 100 μg/mL), “+”; at BSA (BSA 150 ng/band, compound 100 μg/mL), “+”; at BSA (BSA 300 ng/band, compound 100 μg/mL), “+”. In addition, the Detection result on BSA (BSA 1000 ng/band, compound 100 μg/mL) is recorded as “+”. The same compound had a Protein detection sensitivity on BSA (BSA, compound 100 μg/mL) of 30 ng. The “False positive spots after washing step” value at BSA (wash solution water:methanol=90:10) is reported as “insoluble matter adhering to the gel appeared as false positive spots”. Besides, the Solubility in water result in data set [4] is given as “hardly soluble in water”. Further, in data set [4] (100 μg/mL in distilled water:methanol=1:1), the “Precipitation in the staining solution during staining” value is recorded as “precipitated in the staining solution”.
